Here are results for two substances from US4421685A, “Process for producing an insulin” (Eli Lilly and Company, priority 1981, dated 1983).

The target of one test is insulin receptor (Homo sapiens, UniProt P06213). The test can be described thus: insulin radioreceptor assay. It counts as binding. From the text: (§1) Moreover, the product can be assayed for purity and activity by recognized methods such as polyacrylamide gel electrophoresis, amino acid analysis, insulin radioreceptorassay, insulin radioimmunoassay, high performance liquid chromatography (HPLC), ultraviolet spectrum, dansylation, rabbit blood glucose assay, and the like.
Sequence of insulin receptor (P06213 28-758 limits assumed): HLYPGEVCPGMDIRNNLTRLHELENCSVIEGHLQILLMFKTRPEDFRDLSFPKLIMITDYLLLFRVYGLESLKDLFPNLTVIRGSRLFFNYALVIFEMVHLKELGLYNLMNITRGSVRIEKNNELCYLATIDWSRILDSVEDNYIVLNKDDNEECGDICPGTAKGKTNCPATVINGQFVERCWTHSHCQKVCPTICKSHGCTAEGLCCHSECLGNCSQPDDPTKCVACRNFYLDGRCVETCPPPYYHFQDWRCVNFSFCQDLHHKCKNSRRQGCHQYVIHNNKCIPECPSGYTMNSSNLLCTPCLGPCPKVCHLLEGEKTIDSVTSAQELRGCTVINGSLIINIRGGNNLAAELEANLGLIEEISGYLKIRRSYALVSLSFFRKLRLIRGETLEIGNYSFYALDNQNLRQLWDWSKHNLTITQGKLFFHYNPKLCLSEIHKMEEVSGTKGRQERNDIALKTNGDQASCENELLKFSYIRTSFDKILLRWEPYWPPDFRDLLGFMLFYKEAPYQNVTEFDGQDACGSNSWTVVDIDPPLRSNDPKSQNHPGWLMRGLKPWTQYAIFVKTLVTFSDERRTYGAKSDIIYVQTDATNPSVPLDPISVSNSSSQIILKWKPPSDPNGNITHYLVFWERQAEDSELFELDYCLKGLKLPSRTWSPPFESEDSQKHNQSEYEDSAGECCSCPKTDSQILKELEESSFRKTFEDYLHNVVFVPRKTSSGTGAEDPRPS
Sequence of insulin receptor (P06213 763-1382 partner limits assumed): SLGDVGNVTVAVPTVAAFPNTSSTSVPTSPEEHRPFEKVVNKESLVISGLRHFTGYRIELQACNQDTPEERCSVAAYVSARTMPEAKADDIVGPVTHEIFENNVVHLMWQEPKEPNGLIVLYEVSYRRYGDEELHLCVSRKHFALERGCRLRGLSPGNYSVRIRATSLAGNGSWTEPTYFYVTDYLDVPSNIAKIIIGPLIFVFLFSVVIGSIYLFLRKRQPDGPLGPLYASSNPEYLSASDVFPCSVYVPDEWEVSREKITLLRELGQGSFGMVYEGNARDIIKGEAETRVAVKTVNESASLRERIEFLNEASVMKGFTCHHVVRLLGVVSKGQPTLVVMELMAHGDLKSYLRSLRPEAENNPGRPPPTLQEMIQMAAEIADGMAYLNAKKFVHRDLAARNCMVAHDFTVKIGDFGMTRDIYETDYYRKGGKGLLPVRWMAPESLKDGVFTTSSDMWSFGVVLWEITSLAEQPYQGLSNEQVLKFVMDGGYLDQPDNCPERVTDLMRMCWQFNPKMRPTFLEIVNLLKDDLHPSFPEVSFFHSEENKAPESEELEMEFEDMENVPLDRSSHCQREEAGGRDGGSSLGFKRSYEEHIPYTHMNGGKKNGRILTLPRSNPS
After acidification to pH 3.15 with glacial acetic acid, a portion of this solution was gel filtered on a 1.5×90 cm. column of Sephadex G-50 (Superfine) equilibrated and eluted with 1 M acetic acid at 4°-8° C. The [N-formyl-Gly^1 A] human insulin peak (elution volume 87-95 ml.) was pooled, aliquotted and lyophilized. This protein was judged to be quite clean by HPLC and amino acid analysis. The bioactivity of [N-formyl-Gly^1 -A] human insulin evaluated by radioreceptor assay was 17% relative to a human insulin standard.

A further test relates to rabbit blood glucose. The test is described as follows: USP rabbit assay (rabbit blood glucose assay). Format: in vivo. The conditions noted are these: 144 rabbits; zinc insulin crystals redissolved in 0.01 N HCl.
Excerpt: as §1
The resulting human insulin preparation was judged to be quite pure by polyacrylamide gel electrophoresis (a single band), amino acid analysis, insulin radioreceptorassay, insulin radioimmunoassay, HPLC, dansylation and UV spectrum. […] (anhydrous).

For [N-formyl-Gly^1 -A] human insulin, the “bioactivity evaluated by radioreceptor assay relative to a human insulin standard” value on insulin receptor worked out at 17%.
Take human insulin: the “potency, USP rabbit assay” value in the test on rabbit blood glucose was 26.3±1.8 units per mg. (anhydrous).
